This note sets out measurements from ChEMBL document CHEMBL1201862, “PubChem BioAssay data set” (2004).

The term CC50 denotes the concentration at which the toxic effect on the cells reaches its halfway point. Usually EC50 stands for the concentration that produces a half-maximal response. For orientation: AC50 means the concentration at which the activity in the assay is half-maximal. What is called IC50 is the concentration that inhibits the measured activity by half.

The nature of assay [1]: HepG2 cell cytotoxicity, dose response, cytotoxicity control for non-replicating M. tuberculosis project (AID 489018). The note with it: Mycobacterium tuberculosis. Type of assay: functional.
Assay [2] in a line: cells. The assay is classed as functional, cell-based.
Assay [3] can be described thus: Luminescence Cell-Based Dose Confirmation HTS to Identify Inhibitors of Platelet Dense Granule Release. [Related pubchem assays: 1663 (Primary HTS), 1678 (Summary of Project)]. The assay is classed as functional.
Assay [4] has as its target T1, Replicative DNA helicase DnaB (Mycobacterium tuberculosis, UniProt P9WMR3).
T1 sequence (P9WMR3 whole entry): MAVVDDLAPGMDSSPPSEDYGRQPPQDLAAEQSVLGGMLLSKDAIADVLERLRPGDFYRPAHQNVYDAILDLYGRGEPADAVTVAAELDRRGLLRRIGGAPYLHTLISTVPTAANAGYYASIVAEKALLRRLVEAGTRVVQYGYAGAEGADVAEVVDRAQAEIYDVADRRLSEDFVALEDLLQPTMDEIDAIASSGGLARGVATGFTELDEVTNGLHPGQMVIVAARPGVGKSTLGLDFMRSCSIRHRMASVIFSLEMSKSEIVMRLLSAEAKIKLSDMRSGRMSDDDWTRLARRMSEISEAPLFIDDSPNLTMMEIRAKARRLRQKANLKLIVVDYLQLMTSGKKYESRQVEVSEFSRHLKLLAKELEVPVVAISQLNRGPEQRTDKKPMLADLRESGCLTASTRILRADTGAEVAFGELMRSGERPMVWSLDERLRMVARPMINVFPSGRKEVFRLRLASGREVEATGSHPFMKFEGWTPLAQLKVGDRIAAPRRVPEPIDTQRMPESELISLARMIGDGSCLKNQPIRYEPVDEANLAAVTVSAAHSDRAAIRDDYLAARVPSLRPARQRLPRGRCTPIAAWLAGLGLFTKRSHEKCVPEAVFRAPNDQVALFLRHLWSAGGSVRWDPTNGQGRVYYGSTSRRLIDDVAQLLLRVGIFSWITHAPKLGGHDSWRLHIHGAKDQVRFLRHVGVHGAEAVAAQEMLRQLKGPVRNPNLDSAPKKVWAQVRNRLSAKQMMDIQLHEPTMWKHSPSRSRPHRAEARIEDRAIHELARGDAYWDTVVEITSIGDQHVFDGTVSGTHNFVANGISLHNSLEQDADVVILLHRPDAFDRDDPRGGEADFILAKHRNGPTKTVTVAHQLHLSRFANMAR
The experiment in a line: DnaB intein splicing inhibitors, dose response, biochemical, cell-free fluorescence (AID 449749). Type of assay: functional.

For a further assay, the target named is Beta Lactamase (Pseudomonas aeruginosa, UniProt Q932Y6). The experiment in a line: beta-lactamase reporter inhibitor potency, dose response, artefact control for TLR9-MyD88 binding inhibitor project, BLA reporter cells, FRET fluorescence (AID 588341).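 Further: cell based assay in CHO-K1 cells stably expressing beta-lactamase.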 The assay is classed as cell-based.
Chain of Beta Lactamase (Q932Y6 whole entry): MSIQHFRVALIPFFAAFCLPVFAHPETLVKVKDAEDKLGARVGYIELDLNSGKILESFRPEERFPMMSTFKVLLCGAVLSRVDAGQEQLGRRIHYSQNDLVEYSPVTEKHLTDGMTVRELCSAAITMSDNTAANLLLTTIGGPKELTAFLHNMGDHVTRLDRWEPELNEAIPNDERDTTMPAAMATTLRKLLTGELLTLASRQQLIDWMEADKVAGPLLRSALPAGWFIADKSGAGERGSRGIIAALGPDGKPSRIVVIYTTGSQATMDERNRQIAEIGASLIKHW
Assay [5] can be described thus: cytotoxicity in KRAS-transformed pancreatic duct cells, primary screen, cell-based, fluorescence, HTS (AID 431).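 Further: cell line used: HPDE-C7K.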 Type of assay: functional. The note with it: Homo sapiens.
In assay [6] the target is T2, Luciferin 4-monooxygenase (Photinus pyralis, UniProt P08659). The assay can be described thus: firefly luciferase enzyme inhibitors, dose response, biochemical, luminescence (AID 1891).
T2 sequence (P08659 whole entry): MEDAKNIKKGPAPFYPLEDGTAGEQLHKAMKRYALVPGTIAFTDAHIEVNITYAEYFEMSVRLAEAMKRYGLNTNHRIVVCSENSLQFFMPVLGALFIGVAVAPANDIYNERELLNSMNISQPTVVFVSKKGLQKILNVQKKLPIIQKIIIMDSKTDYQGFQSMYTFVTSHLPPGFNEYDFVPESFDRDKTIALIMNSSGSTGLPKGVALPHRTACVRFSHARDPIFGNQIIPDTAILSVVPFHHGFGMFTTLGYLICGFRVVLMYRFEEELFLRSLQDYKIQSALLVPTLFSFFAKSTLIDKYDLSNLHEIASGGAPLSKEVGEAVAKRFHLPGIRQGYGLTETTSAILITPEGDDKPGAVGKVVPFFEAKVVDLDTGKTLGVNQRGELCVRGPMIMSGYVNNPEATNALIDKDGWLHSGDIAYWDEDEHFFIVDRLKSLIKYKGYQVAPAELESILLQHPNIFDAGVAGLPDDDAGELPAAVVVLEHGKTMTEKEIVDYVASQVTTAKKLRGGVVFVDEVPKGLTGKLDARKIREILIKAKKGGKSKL
Assay [7] has as its target T2, Luciferin 4-monooxygenase. The assay can be described thus: Counter Screen for Luciferase-based Assay Positives. [Related pubchem assays: 620, 618, 411 ]. A general note: Counterscreens check selectivity or assay interference.
A further assay concerns the target T3, Protein RecA (Mycobacterium tuberculosis, UniProt P9WHJ3).
T3 sequence (P9WHJ3 whole entry): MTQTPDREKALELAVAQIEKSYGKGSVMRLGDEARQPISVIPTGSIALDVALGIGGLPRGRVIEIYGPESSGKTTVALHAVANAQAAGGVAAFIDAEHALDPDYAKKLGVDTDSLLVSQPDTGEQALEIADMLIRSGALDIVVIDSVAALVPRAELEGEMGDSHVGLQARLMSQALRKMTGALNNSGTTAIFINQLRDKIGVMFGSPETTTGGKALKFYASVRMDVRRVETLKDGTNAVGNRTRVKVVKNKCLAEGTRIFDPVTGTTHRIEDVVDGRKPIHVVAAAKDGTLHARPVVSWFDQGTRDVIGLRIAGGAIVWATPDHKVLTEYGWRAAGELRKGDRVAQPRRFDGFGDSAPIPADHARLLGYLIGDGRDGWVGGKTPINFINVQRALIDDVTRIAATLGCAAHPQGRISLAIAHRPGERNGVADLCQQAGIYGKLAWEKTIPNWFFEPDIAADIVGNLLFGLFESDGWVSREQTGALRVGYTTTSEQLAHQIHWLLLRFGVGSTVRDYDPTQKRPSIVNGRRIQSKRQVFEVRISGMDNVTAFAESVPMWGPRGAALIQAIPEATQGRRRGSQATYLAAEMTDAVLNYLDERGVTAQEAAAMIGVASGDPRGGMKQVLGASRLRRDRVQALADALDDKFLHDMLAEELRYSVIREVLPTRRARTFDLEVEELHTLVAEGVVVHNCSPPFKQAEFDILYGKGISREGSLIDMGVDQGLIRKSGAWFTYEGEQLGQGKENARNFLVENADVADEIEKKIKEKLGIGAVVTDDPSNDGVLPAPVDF
The experiment in a line: Fluorescence Cell-Free Homogeneous Dose Retest to Identify Inhibitors of RecA-Intein Splicing Activity. [Related pubchem assays (depositor defined):AID2097, AID2223, AID489010, AID492950]. The assay is classed as functional.

In the next assay the test system is HT-1080. The assay can be described thus: cytotoxicity in HT1080 fibrosarcoma cells, cell-based, fluorescence readout (AID 620). Type of assay: functional. Particulars: Homo sapiens.
Assay [8] concerns the target T4, Sphingosine 1-phosphate receptor 4 (Homo sapiens, UniProt O95977). The experiment in a line: Late stage fluorescence dose response cell-based screening assay for antagonists of the Sphingosine 1-Phosphate Receptor 4 (S1P4). [Related pubchem assays: 1524 (Confirmation screen (S1P4 antagonists).), 1510 (Primary screen (S1P4 antagonists).), 1853 (Summary AID (S1P4 antagonists).), 1692 (Dose response screen (S1P4 antagonists).)]. Type of assay: functional.

Assay [9] can be described thus: cells. Type of assay: functional.
Assay [10] concerns the target Sphingosine 1-phosphate receptor 1 (Homo sapiens, UniProt P21453). The assay is classed as functional.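 Further: Tango beta-arrestin reporter U2OS cells stimulated with S1P near its EC80; inhibitor potency meaning antagonism of receptor activation by the natural agonist.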
Assay [11] in a line: THP-1 cell cytotoxicity, dose response, cytotoxicity control for non-replicating M. tuberculosis project (AID 489025). Type of assay: functional.
A short description of assay [12]: cytotoxicity in HPDE-C7 cells, cell-based, fluorescence, HTS (AID 430). The assay is classed as functional. Particulars: Homo sapiens.
The nature of assay [13]: cells. The assay is classed as functional, cell-based. The source holds these as a separate data set.
For assay [14], the target named is T4, Sphingosine 1-phosphate receptor 4. The experiment in a line: Fluorescence dose response cell-based high throughput screening assay for antagonists of the Sphingosine 1-Phosphate Receptor 4 (S1P4). [Related pubchem assays: 1524 (Confirmation in triplicates.), 1510 (Primary screen.)]. The assay is classed as functional.
The next assay concerns CHO. The assay can be described thus: cytotoxicity in TLR9-MyD88 CHO cells, dose response, cytotoxicity control for TLR9-MyD88 binding inhibitor project, cell-based, luminescence (AID 588339).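 Further: CHO cells stably coexpressing TLR9 and MyD88 fusions from primary screen; compound exposure lasted 48 hours before viability readout.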 The assay is classed as functional, hamster. The note with it: Cricetulus griseus.

Molecules are shown by their SMILES. The source made the active and inactive calls.

T4 sequence (O95977 whole entry): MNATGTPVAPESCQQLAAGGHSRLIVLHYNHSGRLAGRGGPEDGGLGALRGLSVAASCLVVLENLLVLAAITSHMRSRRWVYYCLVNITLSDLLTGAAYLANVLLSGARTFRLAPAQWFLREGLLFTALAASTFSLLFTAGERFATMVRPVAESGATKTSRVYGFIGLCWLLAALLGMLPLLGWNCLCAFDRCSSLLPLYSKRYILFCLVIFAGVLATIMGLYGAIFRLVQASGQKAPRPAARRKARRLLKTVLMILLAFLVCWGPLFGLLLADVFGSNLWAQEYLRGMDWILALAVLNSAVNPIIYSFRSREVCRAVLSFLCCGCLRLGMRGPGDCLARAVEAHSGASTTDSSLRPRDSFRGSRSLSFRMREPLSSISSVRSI
Chain of Sphingosine 1-phosphate receptor 1 (P21453 whole entry): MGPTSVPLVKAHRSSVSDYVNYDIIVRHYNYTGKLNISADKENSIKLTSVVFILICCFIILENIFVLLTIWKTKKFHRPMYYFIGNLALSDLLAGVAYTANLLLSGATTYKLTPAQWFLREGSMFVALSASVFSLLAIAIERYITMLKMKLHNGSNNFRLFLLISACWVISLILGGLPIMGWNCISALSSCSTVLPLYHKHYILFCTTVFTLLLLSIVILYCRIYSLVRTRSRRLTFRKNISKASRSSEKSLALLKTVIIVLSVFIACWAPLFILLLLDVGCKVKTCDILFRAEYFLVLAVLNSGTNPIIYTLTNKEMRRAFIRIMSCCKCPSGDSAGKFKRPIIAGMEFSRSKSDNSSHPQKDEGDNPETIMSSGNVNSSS

On to `CCOC(=O)CCS(=O)(=O)c1nc(-c2ccccc2)cc(C(F)(F)F)n1`, for which the CC50 in assay [1] is 16.2 µM (active); in assay [11], 19.9 µM (active). Also, the EC50 was > 350 µM (not active) in “cells [2]”; 14.1 µM (active) in assay [3]; 4.4 µM (active) in assay [5]; > 112 µM (not active) in assay [6]; < 0.2 µM (active) in assay [7]; 3.23 µM (active) at Protein RecA. For the same compound, the EC50 in the assay with HT-1080 was 14 µM (active); in [12] it was 4.94 µM (active); in “cells [13]”, 43.4 µM (active). The AC50 in [4] is 4.45 µM (active). The IC50 on Beta Lactamase was 28.2 µM (inactive); in [8], 3.58 µM (not active); in the assay “cells [9]” it was 2.7 µM (active); in assay [10], 15.5 µM (not active); in assay [14] it was 0.843 µM (active); in the assay on CHO it was 3.49 µM (active).
